Results as given in the supplement of paper PMC10307832.

How the values were obtained:
Assay in all cases: relative viability (nuclei count vs DMSO), 5 days (fraction); higher = more cells survive
[1] = compound: CCC1=CN=CN=C1N2CCN(CC2)CC3=NC4=C(N3)C=C(C=C4)C(F)(F)F + O=C(c1cc(Cc2n[nH]c(=O)c3ccccc23)ccc1F)N1CCN(C(=O)C2CC2)CC1 [Olaparib] (partner 8 µM)
Summary of the method: (§1)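 One day after seeding in 1536-well plates, lung cancer cell lines were dosed by pin tool. Dosing was either single-drug or a fixed anchor-drug dose plus five library-drug doses (not always all listed) in √10 steps. After 5 days, nuclei were stained in one fix-and-stain step and counted on 4× images, and relative viability is the nuclei count of treated wells over that of vehicle wells, given as the median of duplicate plates.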

[2] = compound: CCn1c(-c2nonc2N)nc2cnc(Oc3cccc(NC(=O)c4ccc(OCCN5CCOCC5)cc4)c3)cc21 + CC(=O)Nc1cccc(-n2c(=O)n(C3CC3)c(=O)c3c(Nc4ccc(I)cc4F)n(C)c(=O)c(C)c32)c1 [Trametinib] (partner 0.02 µM)
Summary of the method: as §1

[3] = compound: N=C1NC(=O)/C(=C/c2ccc(O)cc2)S1 [Mirin] + CS(=O)(=O)CCNCc1ccc(-c2ccc3ncnc(Nc4ccc(OCc5cccc(F)c5)c(Cl)c4)c3c2)o1 [Lapatinib] (partner 2 µM)
Summary of the method: as §1

[4] = compound: N=C1NC(=O)/C(=C/c2ccc(O)cc2)S1 [Mirin] + Cc1nc(Nc2ncc(C(=O)Nc3c(C)cccc3Cl)s2)cc(N2CCN(CCO)CC2)n1 [Dasatinib] (partner 0.075 µM)
Summary of the method: as §1

## UMC-11
[1]; first compound 0.04 µM
  relative viability: 0.393
[1]; first compound 0.1265 µM
  relative viability: 0.392
[1]; first compound 0.4 µM
  relative viability: 0.359
[1]; first compound 1.265 µM
  relative viability: 0.32
[1]; first compound 4 µM
  relative viability: 0.332
[2]; first compound 0.04 µM
  relative viability: 0.609
[2]; first compound 0.1265 µM
  relative viability: 0.607
[2]; first compound 0.4 µM
  relative viability: 0.298
[2]; first compound 1.265 µM
  relative viability: 0.0887
[2]; first compound 4 µM
  relative viability: 0.963
[3]; first compound 0.25 µM
  relative viability: 0.958
[3]; first compound 2.5 µM
  relative viability: 0.985
[3]; first compound 7.906 µM
  relative viability: 0.548
[3]; first compound 25 µM
  relative viability: 0.684
[4]; first compound 0.25 µM
  relative viability: 0.45
[4]; first compound 0.7906 µM
  relative viability: 0.424
[4]; first compound 2.5 µM
  relative viability: 0.493
[4]; first compound 7.906 µM
  relative viability: 0.415
[4]; first compound 25 µM
  relative viability: 0.438
